pIC50: −log10 of the molar value. Read-outs that look alike come from different tables or passages of the source.
Assays:
[1] = target: purified Na^+,K^+ -ATPase (Homo sapiens, UniProt P05023); assay: inhibition of the activity of the purified Na+,K+-ATPase (% hydrolysis of 32P-ATP); assay type: biochemical; settings: for IC50: read-out: Inhibitory Activity log IC50 (converted)
[2] = target: Na^+, K^+ -ATPase receptor (Homo sapiens, UniProt P05023); assay: displacement of the specific 3H-ouabain binding from the Na+,K+-ATPase receptor; settings: for IC50: displacement of specific 3H-ouabain binding, read-out: Binding ^3 H-Ouab. Displacement log IC50 (converted)

| Structure (SMILES) | IC50 ([1]; purified Na+,K+-ATPase) [nM] | IC50 [2] [nM] | pIC50 [2] | IC50 [1] [nM] | pIC50 [1] |
| --- | --- | --- | --- | --- | --- |
| C[C@]12CC[C@H](O)C[C@H]1CC[C@@H]1[C@@H]2CC[C@]2(C)[C@@H](CCC=NNC(=N)N)CC[C@]12O (mixture of isomers) [Comp. 1-bi, (EZ)-17β-(3-Guanidinoiminopropyl)-5β-androstane-3β,14β-diol] | 2000 | 126 |  |  |  |
| CN(C)CCON=C/C=C/[C@H]1CC[C@]2(O)[C@@H]3CC[C@@H]4C[C@@H](OCCCN)CC[C@]4(C)[C@H]3CC[C@]12C (mixture of isomers) [Comp. 1-ce, 3β-(3-Aminopropoxy)-17β-[3-(EZ)-(2-dimethylaminoethoxy-imino)-1-(E)-propenyl]-5β-androstane-14β-ol] | 20 | 15.8 |  |  |  |
| CN(C)CCON=C/C=C/[C@H]1CC[C@]2(O)[C@@H]3CC[C@@H]4C[C@@H](O)CC[C@]4(C)[C@H]3CC[C@]12C (mixture of isomers) [Comp. I-aq, 17β-[3-(EZ)-(2-Dimethylaminoethoxyimino)-1-(E)-propenyl]-5β-androstane-3β,14β-diol] | 31.6 | 25.1 |  |  |  |
| CN(C)CCCON=C/C=C/[C@H]1CC[C@]2(O)[C@@H]3CC[C@@H]4C[C@@H](O)CC[C@]4(C)[C@H]3CC[C@]12C (mixture of isomers) [Comp. I-ar, 17β-[3-(3-(EZ)-Dimethylaminopropoxyimino)-1-(E)-propenyl]-5β-androstane-3β,14β-diol] | 126 | 63.1 |  |  |  |
| C[C@]12CC[C@H](O)C[C@H]1CC[C@@H]1[C@@H]2CC[C@]2(C)[C@@H](/C=C/C=NOCCNC(=N)N)CC[C@]12O (mixture of isomers) [Comp. I-as, 17β-[3-(EZ)-(2-Guanidinoethoxyimino)-1-(E)-propenyl]-5β-androstane-3β,14β-diol] | 158 |  | 7.00 |  |  |
| C[C@]12CC[C@H](O)C[C@H]1CC[C@@H]1[C@@H]2CC[C@]2(C)[C@@H](/C=C/C=NOCCCNC(=N)N)CC[C@]12O (mixture of isomers) [Comp. I-at, 17β-[3-(EZ)-(3-Guanidinopropoxyimino)-1-(E)-propenyl]-5β-androstane-3β,14β-diol] | 316 | 158 |  |  |  |
| C[C@]12CC[C@H](O)C[C@H]1CC[C@@H]1[C@@H]2CC[C@]2(C)[C@@H](CC=NNC(=N)N)CC[C@]12O (mixture of isomers) [Comp. I-bc, (EZ)-17β-(2-Guaidinoimino)ethyl-5β-androstane-3β,14β-diol] | 398 | 79.4 |  |  |  |
| C[C@]12CC[C@H](O)C[C@H]1CC[C@@H]1[C@@H]2CC[C@]2(C)[C@@H](CC=NNC3=NCCN3)CC[C@]12O (mixture of isomers) [Comp. I-bd, (EZ)-17β-[2-(2-Imidazolin-2-yl)hydrazonoethyl]-5β-androstane-3β,14β-diol] | 631 | 126 |  |  |  |
| C[C@]12CC[C@H](O)C[C@H]1CC[C@@H]1[C@@H]2CC[C@]2(C)[C@@H](CC=NOCCN)CC[C@]12O (mixture of isomers) [Comp. I-bf, (EZ)-17β-[2-(2-Aminoethoxyimino)ethyl]-5β-androstane-3β,14β-diol] | 316 | 25.1 |  |  |  |
| C[C@]12CC[C@H](O)C[C@H]1CC[C@@H]1[C@@H]2CC[C@]2(C)[C@@H](CC=NOCCCN)CC[C@]12O (mixture of isomers) [Comp. I-bg, (EZ)-17β-[2-(3-Aminopropoxyimino)ethyl]-5β-androstane-3β,14β-diol] | 398 |  | 7.30 |  |  |
| CN(C)CCON=CC[C@H]1CC[C@]2(O)[C@@H]3CC[C@@H]4C[C@@H](O)CC[C@]4(C)[C@H]3CC[C@]12C (mixture of isomers) [Comp. I-bh, (EZ)-17β-[2-(2-Dimethylaminoethoxyimino)ethyl]-5β-androstane-3β,14β-diol] | 631 | 39.8 |  |  |  |
| C[C@]12CC[C@H](O)C[C@H]1CC[C@@H]1[C@@H]2CC[C@]2(C)[C@@H](CCC=NNC3=NCCN3)CC[C@]12O (mixture of isomers) [Comp. I-bj, (EZ)-17β-[3-(2-Imidazolin-2-yl)hydrazonopropyl]-5β-androstane-3β,14β-diol] |  | 251 |  | 3160 |  |
| C[C@]12CC[C@H](O)C[C@H]1CC[C@@H]1[C@@H]2CC[C@]2(C)[C@@H](CCC=NOCCN)CC[C@]12O (mixture of isomers) [Comp. I-bm, (EZ)-17β-[3-(2-Aminoethoxyimino)propyl]-5β-androstane-3β,14β-diol] | 79.4 | 25.1 |  |  |  |
| CN(C)CCON=CCC[C@H]1CC[C@]2(O)[C@@H]3CC[C@@H]4C[C@@H](O)CC[C@]4(C)[C@H]3CC[C@]12C (mixture of isomers) [Comp. I-bn, (EZ)-17β-[3-(2-Dimethylaminoethoxyimino)propyl]-5β-androstane-3β,14β-diol] | 100 | 25.1 |  |  |  |
| CN(C)CCON=CC[C@@]1(O)CC[C@]2(O)[C@@H]3CC[C@@H]4C[C@@H](O)CC[C@]4(C)[C@H]3CC[C@]12C (mixture of isomers) [Comp. I-bt, (EZ)-17β-[2-(2-Dimethylaminoethoxyimino)ethyl]-5β-androstane-3β,14β,17α-triol] | 10000 | 794 |  |  |  |
| CN(C)CCON=C/C=C/[C@H]1CC[C@]2(O)[C@@H]3CC[C@@H]4C[C@@H](OCCN5CCCC5)CC[C@]4(C)[C@H]3CC[C@]12C (mixture of isomers) [Comp. I-by, 3β-[2-(1-Pyrrolidinyl)ethoxy]-17β-[3-(EZ)-(2-dimethylamino-ethoxyimino)-1-(E)-propenyl]-5β-androstane-14β-ol] | 31.6 | 20 |  |  |  |
| CC(CO[C@H]1CC[C@@]2(C)[C@H](CC[C@@H]3[C@@H]2CC[C@]2(C)[C@@H](/C=C/C=NOCCN(C)C)CC[C@]32O)C1)N1CCCC1 (mixture of isomers) [Comp. I-ca, 3β-[2-(1-Pyrrolidinyl)propoxy]-17β-[3-(EZ)-(2-dimethylamino-ethoxyimino)-1-(E)-propenyl]-5β-androstane-14β-ol] | 39.8 | 31.6 |  |  |  |
| C[C@]12CC[C@H](OCCN)C[C@H]1CC[C@@H]1[C@@H]2CC[C@]2(C)[C@@H](/C=C/C=NNC(=N)N)CC[C@]12O (mixture of isomers) [Comp. I-cb] | 100 | 20 |  |  |  |
| CN(C)CCON=C/C=C/[C@H]1CC[C@]2(O)[C@@H]3CC[C@@H]4C[C@@H](OCCN)CC[C@]4(C)[C@H]3CC[C@]12C (mixture of isomers) [Comp. I-cc, 3β-(2-Aminoethoxy)-17β-[3-(EZ)-(2-dimethylaminoethoxyimino)-1-(E)-propenyl]-5_62-androstane-14β-ol] | 31.6 | 20 |  |  |  |
| CN(C)CCON=CC[C@H]1CC[C@]2(O)[C@@H]3CC[C@@H]4C[C@@H](OCCN5CCCC5)CC[C@]4(C)[C@H]3CC[C@]12C (mixture of isomers) [Comp. I-cg, 3β-[2-(1-Pyrrolidinyl)ethoxy]-17β-[3-(EZ)-(2-dimethylamino-ethoxyimino)ethyl]-5β-androstane-14β-ol] | 100 | 31.6 |  |  |  |
| CN(C)CCON=CC[C@H]1CC[C@]2(O)[C@@H]3CC[C@@H]4C[C@@H](OCCCN5CCCC5)CC[C@]4(C)[C@H]3CC[C@]12C (mixture of isomers) [Comp. I-ci, 3β-[3-(1-Pyrrolidinyl)propoxy]-17β-[3-(EZ)-(2-dimethylamino-ethoxyimino)ethyl]-5β-androstane-14β-ol] | 158 |  | 7.30 |  |  |
| CN(C)CCON=CC[C@H]1CC[C@]2(O)[C@@H]3CC[C@@H]4C[C@H](O)CC[C@]4(C)[C@H]3CC[C@]12C (mixture of isomers) [Comp. I-cm, (EZ)-17β-[2-(2-Dimethylaminoethoxyimino)ethyl]-5β-androstane-3α,14β-diol] |  | 100 |  | 1000 |  |
| C[C@]12CC[C@H](O)C[C@H]1CC[C@@H]1[C@@H]2CC[C@]2(C)[C@@](O)(/C=C/C=N/NC(=N)N)CC[C@]12O [Comp. 1-bo, (E,E)-17β-(3-Guanidinoimino-1-propenyl)-5β-androstane-3β,14β,17α-triol] | 10000 | 501 |  |  |  |
| C[C@]12CC[C@H](O)C[C@H]1CC[C@@H]1[C@@H]2CC[C@]2(C)[C@@H](/C=C/C=N\NC(=N)N)CC[C@]12O [Comp. I-ab, 17β-[3-(Z)-Guanidinoimino-1-(E)-propenyl]-5β-androstane-3β,14β-diol] |  | 316 |  | 3160 |  |
| C[C@]12CC[C@H](O)C[C@H]1CC[C@@H]1[C@@H]2CC[C@]2(C)[C@@H](/C=C/C=N/NC3=NCCN3)CC[C@]12O [Comp. I-ac, (E,E)-17β-[3-(2-Imidazolin-2-yl)hydrazono-1-propenyl]-5β-androstane-3β,14β-diol] |  |  | 7.30 |  |  |
| C[C@]12CC[C@H](O)C[C@H]1CC[C@@H]1[C@@H]2CC[C@]2(C)[C@@H](/C=C/C=N\NC3=NCCN3)CC[C@]12O [Comp. I-ad, 17β-[3-(Z)-(2-Imidazolin-2-yl)hydrazono-1-(E)-propenyl]-5β-androstane-3β,14β-diol] |  |  | 6.20 |  |  |
| CN1CCN=C1N/N=C/C=C/[C@H]1CC[C@]2(O)[C@@H]3CC[C@@H]4C[C@@H](O)CC[C@]4(C)[C@H]3CC[C@]12C [Comp. I-ae, (E,E)-17β-[3-(1-Methyl-2-imidazolin-2-yl)hydrazono-1-propenyl]-5β-androstane-3β,14β-diol] |  |  | 6.80 |  | 5.60 |
| C[C@]12CC[C@H](O)C[C@H]1CC[C@@H]1[C@@H]2CC[C@]2(C)[C@@H](/C=C/C=N/NC3=NCC(=O)N3)CC[C@]12O [Comp. I-af, (E,E)-17β-[3-(5-Oxo-2-imidazolin-2-yl)hydrazono-1-propenyl]-5β-androstane-3β,14β-diol] | 39800 | 2000 |  |  |  |
| C[C@]12CC[C@H](O)C[C@H]1CC[C@@H]1[C@@H]2CC[C@]2(C)[C@@H](/C=C/C=C/C=N/N=C(N)N)CC[C@]12O [Comp. I-au] |  | 501 |  |  |  |
| C[C@]12CC[C@H](O)C[C@H]1CC[C@@H]1[C@@H]2CC[C@]2(C)[C@@H](/C=C/C=C/C=N/NC3=NCCCN3)CC[C@]12O [Comp. I-aw, (E,E,E)-17β-[5-(1,4,5,6-Tetrahydro-2-pyrimidinyl)hydrazono-1,3-pentadienyl]-5β-androstane-3β,14β-diol] |  |  |  | 15800 |  |

Source: US5583127A, “17-iminomethylalkenyl-5 β, 14 β-androstane and 17-iminoalkyl-5 β, 14 β-androstane derivatives active on the cardiovascular system, and pharmaceutical compositions containing same” (Sigma-Tau Industrie Farmaceutiche Riunite S.p.A., priority 1993, dated 1996)
